# Test results: patent US20110313006A1, “PHARMACEUTICAL COMPOSITION OF LEVAMLODIPINE OR PHARMACEUTICALLY ACCEPTABLE SALT THEREOF AND β RECEPTOR BLOCKING AGENT, AND USE THEREOF” (SHIHUIDA PHARMACEUTICALS GROUP (JILIN) LTD, priority 2010, published 2011)
# Tested on: SHR rats having spontaneous hypertension
# Assay: Antihypertension test in rat (systolic pressure at the tail artery, tail volume method)
# Assay type: in vivo
# Conditions: for Blood pressure (systolic pressure at the tail artery), 2 weeks after administration: end of week 2; for Blood pressure (systolic pressure at the tail artery), 3 weeks after administration: end of week 3; for Blood pressure (systolic pressure at the tail artery), 4 weeks after administration: end of week 4; for Blood pressure (systolic pressure at the tail artery), before administration / Anti-hypertensive effect compared with the model group: intragastric; for Blood pressure (systolic pressure at the tail artery), before administration: baseline before administration, mean ± spread; for Anti-hypertensive effect compared with the model group: versus model group (0.9% saline)
# Source text: Experiment method: 120 SHR rats having spontaneous hypertension (female:male 1:2, weighted 200-240 g) were equally divided into 12 groups according to the level of hypertension (the specific grouping method is as shown in Table 1), and intragastrically administrated with the medicine. For the blood pressure of the rat, the systolic pressure at the tail artery of the rat when being wake and quiet was indirectly measured by an electronic blood pressure meter through tail volume method respectively before administration, and at the end of 1, 2, 3, and 4 weeks after administration.
# [1] = SHR rats, intragastric daily, n = 10, end of week 1, dose per group in Table 1
# [2] = SHR rats, intragastric daily, n = 10, dose per group in Table 1
# [3] = SHR rats, n = 10, dose per group in Table 1
Molecule,"Blood pressure (systolic pressure at the tail artery), 1 week after administration [1] [Kpa]","Blood pressure (systolic pressure at the tail artery), 2 weeks after administration [2] [KPa]","Blood pressure (systolic pressure at the tail artery), 3 weeks after administration [2] [KPa]","Blood pressure (systolic pressure at the tail artery), 4 weeks after administration [2] [KPa]","Blood pressure (systolic pressure at the tail artery), before administration [3] [KPa]",Anti-hypertensive effect compared with the model group (SHR rats),"Blood pressure (systolic pressure at the tail artery), 1 week after administration (po, 168 h) [Kpa]"
"OC(CNCC(O)C1CCc2cc(F)ccc2O1)C1CCc2cc(F)ccc2O1 (stereo not shown) [Single medicine group 2, Nebivolol]",27.28 ± 1.48,25.94 ± 1.68,25.57 ± 1.61,25.29 ± 1.49,27.42 ± 1.50,significant anti-hypertensive effect,
"CC(C)NCC(O)COc1ccc(COCCOC(C)C)cc1 (stereo not shown) [Single medicine group 3, Bisoprolol]",27.34 ± 1.41,26.14 ± 1.19,25.82 ± 1.20,25.58 ± 1.24,27.52 ± 1.46,significant anti-hypertensive effect,
"CC(C)NCC(O)COc1ccc(CCOCC2CC2)cc1 (stereo not shown) [Single medicine group 4, Betaxolol]",,25.99 ± 1.39,25.62 ± 1.46,,27.45 ± 1.07,significant anti-hypertensive effect,27.20 ± 1.10
"CCN(CC)C(=O)Nc1ccc(OCC(O)CNC(C)(C)C)c(C(C)=O)c1 (stereo not shown) [Single medicine group 5, Celiprolol]",27.41 ± 1.30,,25.83 ± 1.92,25.60 ± 2.05,27.56 ± 1.23,significant anti-hypertensive effect,
"CC(C)(C)NCC(O)COc1cccc2c1CC(O)C(O)C2 (stereo not shown) [Single medicine group 6, Nadolol]",27.30 ± 1.56,26.01 ± 1.42,25.62 ± 1.47,,27.51 ± 1.53,significant anti-hypertensive effect,
Levamlodipine benzenesulfonate [Single medicine group 1],,,,,,significant anti-hypertensive effect,
